Source: patent US20130084257A1, “TRANSDERMAL ABSORPTION PROMOTER, AND EXTERNAL SKIN FORMULATION THEREOF” (TAKASAGO INTERNATIONAL CORPORATION, priority 2010, published 2013)
Like-named read-outs stand apart in the source and are kept apart here.

Legend:
[1] = hairless, mouse, 2 mass %, pH 7.4
Procedure: (§1) A skin specimen extirpated from a hairless mouse was placed in a vertical diffusion cell, with the dermal horny layer side being in the donor side and the dermal basement membrane side being in the receiver side. 16 mL of a phosphate-buffered physiological saline solution (PBS solution) (pH 7.4) was added to the receiver side. The cell was heated in a water bath at 37° C. 30 minutes after starting heating, 1.0 g of a hydrogel, having been heated to 37° C., was applied to the donor side using a needleless syringe. The receiver solution was collected in 1 mL portions at specific time intervals. To the receiver side, the PBS solution was added in 1 mL portions to make up for the collected portions.
(§2) The receiver solution thus collected was subjected to high performance liquid chromatography (HPLC) and the amount of permeated paroxetine was calculated.

[2] = Skin permeability test: effect of promoting transdermal absorption of paroxetine (vertical diffusion cell); type: in vitro ADME; settings: hydrogel with 1 mass % paroxetine and 2 mass % test sample; hairless mouse skin; receiver PBS pH 7.4; 37° C.; n = 5
Excerpt: As a control, purified water was used as a substitute for the test samples.
Device: Elite LaChrom System (manufactured by Hitachi Ltd.)
Column: YMS-Pack ODS-A 4.6 mm×150 mm (manufactured by YMC Co., Ltd.)
Eluent: phosphate buffer (pH 3.5)/acetonitrile=35/65 (V/V)
Measurement wavelength: 235 nm

[3] = Skin permeability test: effect of promoting transdermal absorption of antipyrine (vertical diffusion cell); settings: hydrogel with 2 mass % antipyrine and 2 mass % test sample; hairless mouse skin; receiver PBS pH 7.4; 37° C.; n = 5
Procedure: as §1, §2

CC1CCC(C(C)C)C(OCC(C)(O)CO)C1 (centres unmarked) [CA1, 2-methyl-3-(menthoxy)propane-1,2-diol]
Flux of antipyrine (transdermal absorption amount per unit time and unit area) [1]: 150.71 ± 5.46 μg/cm^2/h
Lagtime of antipyrine (transdermal absorption speed) [1]: 3.20 ± 0.24 h

CC1CCC(C(C)C)C(OCCO)C1 (centres unmarked) [CA5, 2-(menthoxy)ethanol]
Flux of antipyrine (transdermal absorption amount per unit time and unit area) [1]: 224.59 ± 19.56 μg/cm^2/h
Lagtime of antipyrine (transdermal absorption speed) [1]: 1.36 ± 0.28 h

CC1CCC(C(C)C)C(O)C1 (centres unmarked) [Sample 1-Menthol, 1-menthol]
Flux of paroxetine (transdermal absorption amount per unit time and unit area) [2]: 185 ± 31.1 μg/cm^2/h
Lagtime of paroxetine (transdermal absorption speed) [2]: 3.84 ± 1.60 h
Flux of antipyrine (transdermal absorption amount per unit time and unit area) [3]: 300.52 ± 34.42 μg/cm^2/h
Lagtime of antipyrine (transdermal absorption speed) [3]: 0.53 ± 0.02 h
